We go through eight molecules from US11661400B2, “NADPH oxidase inhibitors, pharmaceutical composition comprising the same, and application thereof” (TAIWANJ PHARMACEUTICALS CO., LTD., priority 2018, dated 2023).

The target in one experiment is T1, NOX4 (Homo sapiens, UniProt Q9NPH5).
T1 construct: expressed in transfected cells
T1 sequence (Q9NPH5 1-578): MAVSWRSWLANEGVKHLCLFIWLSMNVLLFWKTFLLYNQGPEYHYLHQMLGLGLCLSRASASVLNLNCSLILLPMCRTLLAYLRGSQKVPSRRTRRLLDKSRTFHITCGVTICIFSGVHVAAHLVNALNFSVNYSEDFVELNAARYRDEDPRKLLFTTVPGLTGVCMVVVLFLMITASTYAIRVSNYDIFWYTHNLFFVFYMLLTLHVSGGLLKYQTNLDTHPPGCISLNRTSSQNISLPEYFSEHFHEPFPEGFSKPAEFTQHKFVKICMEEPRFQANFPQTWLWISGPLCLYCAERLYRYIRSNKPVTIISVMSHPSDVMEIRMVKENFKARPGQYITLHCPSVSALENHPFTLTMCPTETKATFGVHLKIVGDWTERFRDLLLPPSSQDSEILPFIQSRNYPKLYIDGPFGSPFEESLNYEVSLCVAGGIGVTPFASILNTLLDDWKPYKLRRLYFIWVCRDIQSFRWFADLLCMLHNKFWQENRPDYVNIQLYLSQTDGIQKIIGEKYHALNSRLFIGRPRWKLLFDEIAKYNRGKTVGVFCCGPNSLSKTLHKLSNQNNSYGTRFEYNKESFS
T1 sequence (P13498 2-195 partner limits assumed): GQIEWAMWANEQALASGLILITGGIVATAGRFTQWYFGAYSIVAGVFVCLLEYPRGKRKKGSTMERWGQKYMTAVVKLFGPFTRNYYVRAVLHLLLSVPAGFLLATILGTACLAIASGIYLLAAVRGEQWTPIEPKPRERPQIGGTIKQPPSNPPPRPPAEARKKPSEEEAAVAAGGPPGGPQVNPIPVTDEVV
The experiment is described as follows: NOX4 HEK293 overexpression cell-based assay (Amplex Red H2O2). To be noted: HEK293 cells stably overexpressing NOX4, DMSO = 0, GKT137831 = 100; for inhibition at 0.1 µM: HEK293, 100 nM; for inhibition at 1 µM: HEK293, 1000 nM. Here is the method:
Extracellular H2O2 measurement using Amplex™ Red Hydrogen Peroxide/Peroxidase Assay Kit (Catalog number: A22188; Invitrogen, Carlsbad, Calif., USA) was used to detect extracellular H2O2 release by HEK293 cells stably overexpressing NOX4. NOX4 clonal cells in log-phase growth were trypsinized, washed, and dispersed thoroughly. Following trypsinization, the cells (3×10^4) were resuspended in 100 μL of 1× Krebs-Ringer phosphate glucose (KRPG) buffer containing various concentrations of GKT137831 or test compounds and incubated at 37° C. for 30 min. Cells were mixed with 100 μL of Amplex Red reagent solution containing 50 μM Amplex Red and 0.1 units/mL of HRP in KRPG buffer; each assay condition was evaluated induplicate. The samples were incubated at 37° C. for 90 mins in the dark, and then centrifuged at 2,500 g for 5 mins. The supernatants were loaded to a 96 well plate, and then measured using a SpectraMax i3 Multiplate reader (Molecular Devices, Sunnyvale, Calif., USA) at 530 nm excitation and 590 nm emission respectively. DMSO and GKT137831 wells were applied as negative and positive controls, and the activities measured were set to 0 and 100, respectively.

The target in another experiment is T2, NOX1 (Homo sapiens, UniProt Q9Y5S8).
T2 construct: endogenous in cells; host or cells: HT29
T2 sequence (Q9Y5S8 1-564): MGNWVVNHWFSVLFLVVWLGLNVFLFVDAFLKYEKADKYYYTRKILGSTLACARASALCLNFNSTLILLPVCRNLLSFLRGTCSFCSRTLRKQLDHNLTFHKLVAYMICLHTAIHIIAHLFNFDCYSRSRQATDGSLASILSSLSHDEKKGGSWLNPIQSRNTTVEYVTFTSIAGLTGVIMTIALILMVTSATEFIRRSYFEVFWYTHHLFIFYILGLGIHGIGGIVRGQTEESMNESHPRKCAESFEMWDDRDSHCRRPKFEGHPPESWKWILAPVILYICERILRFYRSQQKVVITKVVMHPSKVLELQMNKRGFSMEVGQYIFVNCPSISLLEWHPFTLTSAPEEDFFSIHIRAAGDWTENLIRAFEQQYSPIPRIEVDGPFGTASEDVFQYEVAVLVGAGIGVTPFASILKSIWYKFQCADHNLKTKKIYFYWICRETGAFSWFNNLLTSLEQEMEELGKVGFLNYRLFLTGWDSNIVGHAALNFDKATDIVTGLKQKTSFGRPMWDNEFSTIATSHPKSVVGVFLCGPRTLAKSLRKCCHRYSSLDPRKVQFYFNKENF
T2 sequence (P13498 2-195 partner limits assumed): T1 sequence (P13498 2-195 partner limits assumed)
The experiment is described as follows: NOX1 HT29 cell-based assay (luminol/HRP luminescence). The following applies: HT29 cells, DMSO = 0%, GKT137831 = 100%; for inhibition at 0.1 µM / inhibition at 1 µM: HT-29. On the procedure:
NOX1 HT29 Cell-Based Assay:
HT29 cells were cultured in T75 flask (Corning) and when 70-80% confluence was reached, cells were trypsinized, harvested in HBSS and counted. 1-2×10^5 cells were dispensed into individual wells in 70 μl final volume (96-well plates, white Corning). Cells were treated for 30-60 mins at 37° C. with 10 μl of GKT137831, DMSO and test compounds from their respective assay plates. This will correspond to a final concentration of 100 nM, 1000 nM GKT137831 or test compounds, and 0.1% DMSO. 20 μL of a mixture containing 100 μM luminol plus 0.4 units of HRP (final concentration) was added. Luminescence was quantified using a SpectraMax i3 Multiplate reader (Molecular Devices, Sunnyvale, Calif., USA). As designed, compounds that inhibit NOX1 activity will reduce cellular ROS production, leading to reduced probe-ROS interactions and reduced well luminescence. Compounds were tested in duplicate at a concentration of 100 nM and 1000 nM. DMSO and GKT137831 wells were applied as negative and positive controls, and the activities measured were set to 0% and 100%, respectively.

Another experiment concerns the target T3, NOX2 (Homo sapiens, UniProt P04839).
T3 construct: HL-60 cells, rich in NOX2 expression; endogenous in cells; host or cells: DMSO-differentiated HL-60
T3 sequence (P04839 2-570 limits assumed): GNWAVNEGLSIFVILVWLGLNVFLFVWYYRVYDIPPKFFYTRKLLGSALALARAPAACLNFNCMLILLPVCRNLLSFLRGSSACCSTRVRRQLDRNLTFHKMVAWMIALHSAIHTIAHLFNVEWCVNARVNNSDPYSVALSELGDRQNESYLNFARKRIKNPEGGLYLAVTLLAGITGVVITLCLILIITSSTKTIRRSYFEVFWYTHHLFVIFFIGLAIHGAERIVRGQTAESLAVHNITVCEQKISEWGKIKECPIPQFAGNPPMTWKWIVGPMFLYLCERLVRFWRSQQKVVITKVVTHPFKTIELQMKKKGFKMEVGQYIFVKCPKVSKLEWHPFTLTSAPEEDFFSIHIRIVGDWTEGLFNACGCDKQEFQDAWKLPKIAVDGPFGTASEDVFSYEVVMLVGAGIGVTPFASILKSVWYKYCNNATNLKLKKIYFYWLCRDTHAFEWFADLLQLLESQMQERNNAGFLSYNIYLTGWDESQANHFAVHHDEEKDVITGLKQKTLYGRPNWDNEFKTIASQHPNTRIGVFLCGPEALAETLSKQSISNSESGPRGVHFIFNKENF
T3 sequence (P13498 2-195 partner limits assumed): T1 sequence (P13498 2-195 partner limits assumed)
The experiment is described as follows: NOX2 HL60 cell-based assay (PMA oxidative burst, L012 chemiluminescence). To be noted: DMSO-differentiated HL-60 cells, PMA-stimulated; for inhibition at 1 µM: HL-60, 1000 nM; for inhibition at 0.1 µM: HL-60, 100 nM. Here is the method:
NOX2 HL60 Cell-Based Assay:
HL-60 cells, rich in NOX2 expression, was stimulated to undergo oxidative burst by phorbol myristate acetate (PMA). The ROS produced during this process was measured using the O2^−-specific chemiluminescent probe L012. L012 was added to DMSO-differentiated HL-60 cell suspensions to a final concentration of 100 μM. Then, 80 μL aliquots of cell suspension (2.5×10^5 cells) were transferred to individual wells of a 96-well plate. Test compounds were directly added to the wells at the specified concentrations. Following a 30-60 mins incubation at 37° C. in the dark, the oxidative burst was initiated by the addition of 10 ng/mL PMA, and the chemiluminescence signal was recorded every 5 min over a period of 60 mins in a SpectraMax i3 Multiplate reader (Molecular Devices, Sunnyvale, Calif., USA). • NOX4 HEK293 Overexpression Cell-Based Assay: […]

Molecules are shown by their SMILES. Some results are limits rather than exact numbers.

`COc1cc2[nH]c(-c3ccccc3C)c(O)c(=O)c2cc1OC` [Compound 16]: the figures for the inhibition at 0.1 µM at NOX4 and against NOX1 (100 nM) were 50 to 79% and at least 80%, respectively. Also, the figures for the inhibition at 1 µM against NOX4, against NOX1 (1000 nM) and against NOX2 were 50 to 79%, at least 80% and at least 80%, respectively. Moreover, the “% Inhibition NOX2” value at NOX2 (100 nM) is on record as “C (the percent of inhibition of NOX by the compounds ranges from 2000 to 49%)”.
Consider `COc1cc2[nH]c(-c3ccccc3OC)c(N)c(=O)c2cc1OC` [Compound 38], for which the “% Inhibition NOX4” value at NOX4 (1000 nM) is on record as “C (the percent of inhibition of NOX by the compounds ranges from 2000 to 49%)”. Moreover, the inhibition at 0.1 µM on NOX4, at NOX1 (100 nM) and at NOX2 was at most 19% throughout. In addition, the inhibition at 1 µM against NOX1 (1000 nM) and at NOX2 was at most 19% each time.
For `COc1ccc(-c2[nH]c3ccsc3c(=O)c2O)cc1` [Compound 10], the “% Inhibition NOX4” value at NOX4 (100 nM) is reported as “C (the percent of inhibition of NOX by the compounds ranges from 2000 to 49%)”. The inhibition at 1 µM against NOX4 and on NOX1 (1000 nM) was at least 80% each time. Further, the inhibition at 0.1 µM against NOX1 (100 nM) is at least 80%; against NOX2, at most 19%. On NOX2 (1000 nM), the “% Inhibition NOX2” value is listed as “C (the percent of inhibition of NOX by the compounds ranges from 2000 to 49%)”.
As for `COc1cc2[nH]c(-c3ccccc3C(F)(F)F)c(O)c(=O)c2cc1OC.Cl` [Compound 42, 3-hydroxy-6,7-dimethoxy-2-(2-(trifluoromethyl)phenyl) quinolin-4(1H)-one hydrochloride], the “% Inhibition NOX4” value on NOX4 (100 nM) and on NOX4 (1000 nM) was “B (the percent of inhibition of NOX by the compounds ranges from 50% o to 79% o)” in each case. Also, the “% Inhibition NOX1” value on NOX1 (100 nM) and on NOX1 (1000 nM) was “A (the percent of inhibition of NOX by the compounds is larger than or equals to 80%)” in each case. In addition, the “% Inhibition NOX2” value on NOX2 (1000 nM) is given as “A (the percent of inhibition of NOX by the compounds is larger than or equals to 80%)”. This molecule registered an inhibition at 0.1 µM against NOX2 of 50 to 79%.
For `COc1cc2c(cc1OC)C(=O)NCC(c1ccccc1Cl)=N2` [Compound 35, 2-(2-chlorophenyl)-7,8-dimethoxy-3,4-dihydro-5H-benzo[e][1,4] diazepin-5-one], the inhibition at 0.1 µM on NOX4, on NOX1 (100 nM) and at NOX2 was at most 19% each time. Further, the inhibition at 1 µM at NOX4, against NOX1 (1000 nM) and on NOX2 was at most 19% throughout.
For `COc1cc2[nH]c(-c3ccc(C(F)(F)F)cc3)c(O)c(=O)c2cc1OC` [Compound 12], the inhibition at 0.1 µM against NOX4, at NOX1 (100 nM) and at NOX2 was at most 19% throughout. The inhibition at 1 µM at NOX4 was at least 80%; on NOX1 (1000 nM), at least 80%; against NOX2, at most 19%.
For the molecule `COc1cc2[nH]c(-c3ccccc3Cl)c(O)c(=O)c2cc1OC` [Compound 9], the “% Inhibition NOX4” value at NOX4 (1000 nM, 1 µM) is given as “A (the percent of inhibition of NOX by the compounds is larger than or equals to 80%)”. Also, the results for the inhibition at 0.1 µM at NOX4, against NOX1 (100 nM) and at NOX2 were 50 to 79%, at least 80% and at most 19%, respectively. Besides, the inhibition at 1 µM on NOX1 (1000 nM) and against NOX2 was at least 80% in each case.
Turning to `COc1cc2[nH]c(-c3ccccc3C(F)(F)F)c(O)c(=O)c2cc1OC` [Compound 44, 3-hydroxy-6,7-dimethoxy-2-(2-(trifluoromethyl)phenyl)quinolin-4(1H)-one methanesulfonate], the “% Inhibition NOX2” value at NOX2 (100 nM, methanesulfonate, 0.1 µM) was “C (the percent of inhibition of NOX by the compounds ranges from 2000 to 49%)”; at NOX2 (1000 nM, methanesulfonate, 1 µM), “A (the percent of inhibition of NOX by the compounds is larger than or equals to 80%)”.

One may read the inhibition as how much of the control response was suppressed. Low values mean a weak effect, high ones a strong effect.
